Results reported in paper PMC13233288, “Spider venom peptides Ht1a and Gg1a are toxic to honeybee parasite Varroa destructor by topical application” (npj Drug Discovery, 2026).
Entries after “also recorded” stand apart in the source; their conditions may differ. No end group written: not given here.

Key:
honeybees = test: Topical application of synthetic peptides to honeybees (off-target); assay type: in vivo, Apis mellifera; conditions: 25 μg peptide per honeybee (52-fold the mite dose) in 2% Silwet (v/v), n = 10 workers per group, 3 repeats, vs 2% Silwet control
Text: If sprayed within a beehive, the varroacidal peptides would need to lethal for V. destructor, but safe for the honeybees. To evaluate potential off-target activities of the varroacidal peptides, we first needed to quantify how much larger the body surface of the bees is in comparison to the mites to understand how much more of the varroacidal peptides they would receive when being sprayed. Assuming an elliptical body shape of V. destructor, the surface area can be calculated according to the following formula: A=π×a×b×2
This also means that if we evenly applied these peptides via spraying at a certain concentration to both bees and mites, then the bees would receive a 34-fold higher peptide quantity due to their correspondingly higher surface area.
To allow for an additional safety margin, we topically applied 25 μg of each peptide per bee, which is 52-fold more than the 0.48 μg that each varroa mite received. The effects of sHt1a and sGg1a were tested on honeybees kept in plastic containers in the laboratory. The containers consisted of 250 ml polypropylene round cups with a 52 mm diameter hole cut into the bottom, covered with a 68 mm diameter circle of all-purpose cloth (brand: Peggy Perfect) hot glued to the edge of the hole on the outside of the cup (Supplementary Fig. 3). A 14 mm diameter hole was cut in the lid of the cup to insert a 5 mL syringe which served as feeder. The syringe was filled with 50% sucrose solution, and its tip was cut off to facilitate solution intake by the bees. Honeybee workers were obtained from a comb with emerging individuals placed in an incubator set to 34.5 °C and 70% humidity. The next day, groups of 10 freshly emerged workers were collected, introduced into the prepared cages and placed back in the incubator overnight. The next morning, peptide and control solutions to be tested were freshly prepared from the stock solutions stored at 4 °C. Then, the bees were sedated with CO2 gas until they stopped moving. Immediately after all bees stopped moving, the plastic lid was removed, and 15 µL of testing solution (containing 2% Silwet (v/v) or 25 μg of each peptide per bee) was topically applied on each of the 10 bees per group. The solution was applied on the abdomen or thorax, but not on the wings or head of the individuals. Following treatment, the worker bees were allowed to recover from the sedation and the containers with the bees were put back in the incubator, with mortality being manually checked daily. At the end of each experiment, all arthropods were euthanised by freezing at −20 °C.

VdNaV = test: Two-electrode voltage clamp, VdNaV expressed in Xenopus laevis oocytes; assay type: biochemical, V. destructor; conditions: for varroa vs honeybee NaV channel potency: VdNaV compared with AmNaV, 500 nM
Text: (§1) To examine the activity of sHt1a against target and off-target arthropod voltage-gated sodium (NaV) channels, we used electrophysiological recordings of V. destructor (Vd) or A. mellifera (Am) NaV channels expressed in Xenopus laevis oocytes. The cDNA sequences of the VdNaV (in pGH19; kindly gifted by K. Dong[31]) and AmNaV channel (in pcDNA3.1; Genscript, USA) were confirmed by automated Sanger sequencing (Eurofins Genomics, Germany). RNA was synthesised using T7 polymerase (mMessage mMachine kit, Invitrogen, USA) after linearising the cDNA with an appropriate restriction enzyme (New England Biolabs, USA). NaV channel RNA was microinjected into defolliculated X. laevis oocytes (Nasco®, USA) which were then incubated for 2–3 days at 17 °C in Barth’s medium (in millimolar (mM): 96 NaCl, 2 KCl, 5 HEPES, 1 MgCl2, and 1.8 CaCl2 supplemented with 50 µg/mL gentamycin, pH 7.4 adjusted with NaOH (Sigma, USA)). The use of X. laevis complied with national and Flemish guidelines adhered to by the Ghent University Animal Care and Use Committee. Electrophysiological characteristics were studied using the two-electrode voltage-clamp technique (OC-725C; Warner Instruments, USA) with a 150-µL recording chamber as previously described. All data were filtered at 4 kHz (tunable active filter model 900, Frequency Devices Inc., USA) and digitised at 20 kHz using pClamp 10 software (Molecular Devices, USA). The external recording solution used was ND-100 (in mM: 100 NaCl, 5 HEPES, 1 MgCl2, and 1.8 CaCl2, pH 7.6 adjusted with NaOH; chemicals from Sigma, USA). Microelectrode (Narishige® PC-10 vertical puller) resistances were 0.5–1.0 MΩ when backfilled with 3 M KCl. All experiments were performed at room temperature (~22 °C).
(§2) For electrophysiological experiments, sHt1a dissolved at 50 µM in ND100 was added to the recording chamber containing ND100 to a final concentration of 500 nM. After current stabilisation, normalized conductance-voltage (G-V) and channel availability relationships were obtained by measuring steady-state currents upon stepwise depolarisation for 50 ms from a holding potential of –90 mV in 5 mV increments, followed by a 50 ms pulse at –20 mV. The data were fitted with a single Boltzmann function according to I/Imax (or G/Gmax) = [1+exp(-zF(V-V1/2)/RT)]^−1, where I/Imax is the normalised current amplitude, z is the equivalent charge, V1/2 is the half-activation voltage, F is Faraday’s constant, R is the gas constant, and T is the temperature in Kelvin. Off-line data analysis was performed using Clampfit 10 (Molecular Devices, USA), Excel (Microsoft Office) and Prism 10 (GraphPad). Tests for statistical differences included a student’s t-test for V1/2 values and a Kruskal–Wallis test for current inhibition, with p < 0.05 considered to be significant.

AmNaV = test: Two-electrode voltage clamp, AmNaV expressed in Xenopus laevis oocytes; assay type: biochemical, A. mellifera; conditions: 500 nM sHt1a
Text: as §1, §2

[1] = VdNav, 500 nM sHt1a, mean ± SEM, n = 5 oocytes
[2] = AmNav, mean ± SEM, n = 6 oocytes

Row | Substance | honeybee mortality/survival (honeybees) | honeybee mortality/survival (honeybees; listed as sGg1a) | honeybee mortality/survival (honeybees; listed as sHt1a) | reduction in peak VdNaV current (VdNaV; 500 nM sHt1a, ND-100 pH 7.6, ~22 °C, p = 0.0212 (Kruskal–Wallis)) [%] | varroa vs honeybee NaV channel potency (VdNaV) | varroa vs honeybee NaV channel potency (VdNaV; listed as sHt1a) | change in half-maximal activation or inactivation values (VdNaV; VdNaV, 500 nM sHt1a, vs before treatment) | Activation Hill slope (VdNaV; [1]) | Activation V1/2 (VdNaV; [1]) | Steady state inactivation Hill slope (VdNaV; [1]) | Steady state inactivation V1/2 (VdNaV; [1]) | potency relative to other insect NaV channel targeting spider toxins (VdNaV; authors' comparison of 500 nM sHt1a data (VdNaV, AmNaV) with literature IC50/EC50) | reduction in peak AmNaV current (AmNaV; ND-100 pH 7.6, ~22 °C, p = 0.0095 (Kruskal–Wallis)) [%] | change in half-maximal activation or inactivation values (AmNaV; AmNaV, vs before treatment) | Activation Hill slope (AmNaV; [2]) | Activation V1/2 (AmNaV; [2]) | Steady state inactivation Hill slope (AmNaV; [2]) | Steady state inactivation V1/2 (AmNaV; [2])
1 | U1-macrothelitoxin-Gg1a | innocuous to honeybees | neither peptide caused more mortality; also recorded: did not alter honeybee survival |  |  |  |  |  |  |  |  |  |  |  |  |  |  |  | 
2 | KYCAPRKAVCNTPADCCDKSSRCAYPNYGLGYYLDSEFFGKRKICSWRL (also: bicyclic or more (positions not given here)) [Ht1a, μ-gradutoxin-Ht1a] | innocuous to honeybees |  | neither peptide caused more mortality; also recorded: did not alter honeybee survival | 25.3 ± 7.8 | equal potency | equally active | without a significant change | 3.44 ± 0.55 | –17.7 ± 0.7 mV | –4.90 ± 1.29 | –40.8 ± 0.5 mV | less potent than Tx4(6-1) (IC50 = 25 nM[33]) or Dc1a (EC50 = 65 nM[34]), but similarly potent to Aps III (IC50 = 540 nM[35]) and Jingzhaotoxin-I | 24.7 ± 7.2 | without a significant change | 3.62 ± 0.61 | –27.6 ± 1.3 mV | –5.12 ± 1.44 | –48.2 ± 1.0 mV
